The values below come from patent US7238725B2, “Tricyclic compounds useful for the treatment of inflammatory and allergic disorders: process for their preparation and pharmaceutical compositions containing them” (Glenmark Pharmaceuticals Ltd., priority 2002, dated 2007).

For the test, the target named is PDE4 enzyme. The test can be described thus: Inhibition of Phosphodiesterase Enzymes (PDE4), [3H]cAMP hydrolysis. Conditions: PDE4 enzyme, 1 μM cAMP and 3H cAMP, 34° C.; read-out: IC50. In kind it is biochemical. Here is the method:
Inhibition of Phosphodiesterase Enzymes (PDE4)
In this assay, PDE4 enzyme converts [^3H] cAMP to the corresponding [^3H] 5′-AMP in proportion to the amount of PDE4 present The [^3H] 5′-AMP then was quantitatively converted to free [^3H] adenosine and phosphate by the action of snake venom 5′-nucleotidase.
The assay was performed with modification of the method of Thompson and Appleman (Biochemistry; 1971; 10; 311-316) and Schwartz and Passoneau (Proc. Natl. Acad. Sci. U.S.A. 1974; 71; 3844-3848), both references incorporated herein by reference in their entirety, at 34° C. In a 200 ul total reaction mixture, the reaction mixture contained 12.5 mM of Tris, 5 mM MgCl2, 1 μM cAMP (cold) and ^3H cAMP (0.1 uCi), (Amersham). […] Drug samples were then added in the reaction mixture (25 μl/tube). The assay was initiated by addition of enzyme mix (75 μl) and the mixture was incubated for 20 minutes at 34° C. The reaction was stopped by boiling the tubes for 2 mins at 100° C. in a water bath. After cooling on ice for 5 minutes and addition of 50 ug/reaction of 5′-nucleotidase snake venom from Crotalus atrox incubation was carried out again for 20 min. at 34° C. The unreacted substrate was separated from (^3H) Adenosine by addition of Dowex AG 1-X8 (Biorad Lab), (400 ul) which was prequilibrated (1:1:1) in water and ethanol. Reaction mixture was then thoroughly mixed, placed on ice for 15 minutes, vortexed and centrifuged at 14,000 r.p.m. for 2 mins. After centrifugation, a sample of the supernatant was taken and added in 24 well optiplates containing Scintillant (1 ml) and mixed well. The samples in the plates were then determined for radioactivity in a Top Counter and the PDE4 activity was estimated. PDE4 enzyme was present in quantities that yield <30% total hydrolysis of substrate (linear assay conditions).
Results were expressed as percent inhibition (IC50) in nM concentrations. The IC50 values were determined from the concentration curves by nonlinear regression analysis.
The IC50 value for the compound examined was determined from concentration-response curves in which varying range of concentrations were considered as shown in table 1
Regarding `COc1ccc(C(=O)Nc2ccncc2)c2c1oc1ccccc12` [Example 3, N-(pyrid-4-yl)-4-methoxy dibenzo[b,d]furan-1-carboxamide], the IC50 stood at 8.68 nM.

Turning to `O=C(Nc1cc[n+]([O-])cc1)c1ccc(OC(F)F)c2oc3ccc(C(F)(F)F)cc3c12` [Example 15, N-(pyrid-4-yl)-4-difluoromethoxy-8-trifluoromethyl dibenzo[b,d]furan-1-carboxamide-N1-oxide], the IC50 is 67.3 nM.

On to `O=C(Nc1ccncc1)c1ccc(OC(F)F)c2oc3ccccc3c12` [Example 20, N-(pyrid-4-yl)-4-difluoromethoxy dibenzo[b,d]furan-1-carboxamide], for which the IC50 was 15.8 nM.

Consider `O=C(Nc1cc[n+]([O-])cc1)c1ccc(OC(F)F)c2oc3ccccc3c12` [Example 21, N-(pyrid-4-yl)-4-difluoromethoxy dibenzo[b,d]furan-1-carboxamide-N1-oxide], for which the IC50 is 22.6 nM.

As for `O=C(Nc1cccnc1)c1ccc(OC(F)F)c2oc3ccccc3c12` [Example 22, N-(pyrid-3-yl)-4-difluoromethoxy dibenzo[b,d]furan-1-carboxamide], the IC50 worked out at 105 nM.

For `O=C(Nc1ccc[n+]([O-])c1)c1ccc(OC(F)F)c2oc3ccccc3c12` [Example 23, N-(pyrid-3-yl)-4-difluoromethoxy dibenzo[b,d]furan-1-carboxamide-N1-oxide], the IC50 is 147 nM.

For the molecule `O=C(Nc1ccncc1)c1ccc(OCC2CC2)c2oc3ccccc3c12` [Example 27, N-(pyrid-4-yl)-4-cyclopropylmethoxy dibenzo[b,d]furan-1-carboxamide], the half-inhibitory concentration (IC50) is 73.5 nM.

As for `O=C(Nc1cccnc1)c1ccc(OCC2CC2)c2oc3ccccc3c12` [Example 29, N-(pyrid-3-yl)-4-cyclopropylmethoxy dibenzo[b,d]furan-1-carboxamide], the IC50 was determined as 351 nM.

Take `COc1ccc(C(=O)Nc2ccncc2)c2c1oc1ccc([N+](=O)[O-])cc12` [Example 39, N-(pyrid-4-yl)-4-methoxy-8-nitro dibenzo[b,d]furan-1-carboxamide]: the IC50 worked out at 31.7 nM.

Consider `COc1ccc(C(=O)Nc2ccncc2)c2c1oc1ccc(Br)cc12` [Example 43, N-(pyrid-4-yl)-4-methoxy-8-bromo-dibenzo[b,d]furan-1-carboxamide], for which the IC50 stood at 61.2 nM.

With `COc1ccc(C(=O)Nc2ccncc2)c2c1oc1ccc(I)cc12` [Example 46, N-(pyrid-4-yl)-4-methoxy-8-iodo-dibenzo[b,d]furan-1-carboxamide], the IC50 turned out to be 36.8 nM.

Regarding `CCOc1ccc(C(=O)Nc2c(Cl)cncc2Cl)c2c1oc1ccccc12` [Example 60, 3,5-Dichloro-4-(4-ethoxydibenzo[b,d]furan-1-ylcarboxamido)pyridine], the IC50 is 86.4 nM.

Take `CCOc1ccc(C(=O)Nc2c(Cl)c[n+]([O-])cc2Cl)c2c1oc1ccccc12` [Example 68, 3,5-Dichloro-4-(4-ethoxydibenzo[b,d]furan-1-ylcarboxamido)pyridine-N-oxide]: the IC50 turned out to be 57 nM.

As for `COc1ccc(C(=O)Nc2ccncc2)c2c1[nH]c1ccccc12` [Example 79, N4-(4-pyridyl)-1-methoxy-9H-4-carbazole carboxamide], the IC50 stood at 128 nM.

For the molecule `COc1ccc(C(=O)Nc2c(Cl)cncc2Cl)c2c3cc(Cl)ccc3n(Cc3ccccc3)c12` [Example 82, N4-(3,5-dichloro-4-pyridyl)-9-benzyl-6-chloro-1-methoxy-9H-4-carbazole carboxamide], the IC50 was found to be 19.6 nM.

For the molecule `COc1ccc(C(=O)Nc2c(Cl)cncc2Cl)c2c3cc(Cl)ccc3n(CC3CCCCC3)c12` [Example 83, N4-(3,5-dichloro-4-pyridyl)-6-chloro-9-cyclohexylmethyl-1-methoxy-9H-4-carbazole carboxamide], the IC50 stood at 5.26 nM.

Consider `COc1ccc(C(=O)Nc2c(Cl)cncc2Cl)c2c3cc(Cl)ccc3n(Cc3ccc(F)cc3)c12` [Example 84, N4-(3,5-dichloro-4-pyridyl)-6-chloro-9-(4-fluorobenzyl)-1-methoxy-9H-4-carbazole carboxamide], for which the IC50 was found to be 14.6 nM.

With `COc1ccc(Cn2c3ccc(Cl)cc3c3c(C(=O)Nc4c(Cl)cncc4Cl)ccc(OC)c32)cc1` [Example 85, N4-(3,5-dichloro-4-pyridyl)-6-chloro-9-(4-methoxybenzyl)-1-methoxy-9H-4-carbazolecarboxamide], the half-maximal inhibitory concentration (IC50) came to 8.15 nM.

Consider `COc1ccc(C(=O)Nc2c(Cl)cncc2Cl)c2c3ccccc3n(Cc3ccc(F)cc3)c12` [Example 86, N4-(3,5-dichloro-4-pyridyl)-9-(4-fluorobenzyl)-1-methoxy-9H-4-carbazole carboxamide], for which the IC50 was 72 nM.

For `COc1ccc(C(=O)Nc2ccncc2)c2c3ccccc3n(Cc3ccc(F)cc3)c12` [Example 87, N4-(4-pyridyl)-9-(4-fluorobenzyl)-1-methoxy-9H-4-carbazole carboxamide], the half-inhibitory concentration (IC50) was found to be 393 nM.

For the molecule `COc1ccc(C(=O)Nc2c(Cl)cncc2Cl)c2c3ccccc3n(Cc3ccccc3)c12` [Example 88, N4-(3,5-dichloro-4-pyridyl)-9-benzyl-1-methoxy-9H-4-carbazolecarboxamide], the IC50 amounted to 129 nM.

Consider `COc1ccc(C(=O)Nc2ccncc2)c2c3cc(Cl)ccc3n(Cc3ccc(F)cc3)c12` [Example 93, N4-(4-pyridyl)-6-chloro-9-(4-fluorobenzyl)-1-methoxy-9H -4-carbazolecarboxamide], for which the IC50 is 161 nM.

For the molecule `COc1ccc(C(=O)Nc2c(Cl)cncc2Cl)c2c3cccc(Cl)c3n(CC3CCCCC3)c12` [Example 94, N4-(3,5dichloro-4-pyridyl)-8-chloro-9-cyclohexylmethyl-1-methoxy-9H-4-carbazole carboxamide], the IC50 came to 281 nM.

With `COc1ccc(C(=O)Nc2c(Cl)cncc2Cl)c2c3cccc(Cl)c3n(Cc3ccc(F)cc3)c12` [Example 95, N4-(3,5dichloro-4pyridyl)-8-chloro-9-(4-Fluorobenzyl)-1-methoxy-9H-4-carbazole carboxamide], the IC50 worked out at 78.9 nM.

As to `COc1ccc(C(=O)Nc2c(Cl)c[n+]([O-])cc2Cl)c2c3cc(Cl)ccc3n(Cc3ccc(F)cc3)c12` [Example 97, N4-(3,5-dichloro-4-pyridyl-N-oxide)-6-chloro-9-(4-fluorobenzyl)-1-methoxy-9H-4-carbazolecarboxamide], the IC50 is 40.3 nM.

In the case of `COc1ccc(Cn2c3ccc(Cl)cc3c3c(C(=O)Nc4c(Cl)c[n+]([O-])cc4Cl)ccc(OC)c32)cc1` [Example 98, N4-(3,5-dichloro-4-pyridyl-N-oxide)-6-chloro-9-(4-methoxybenzyl)-1-methoxy-9H-4-carba-zolecarboxamide], the IC50 stood at 39.6 nM.

Take `COc1ccc(C(=O)Nc2c(Cl)c[n+]([O-])cc2Cl)c2c3cc(Cl)ccc3n(CC3CCCCC3)c12` [Example 99, N4-(3,5-dichloro-4-pyridyl-N-oxide)-6-chloro-9-cyclohexylmethyl-1-methoxy-9-H-4-carbazolecarboxamide]: the IC50 stood at 30.1 nM.

Turning to `COc1ccc(NS(=O)(=O)c2ccc(OC)c3sc4ccc(S(=O)(=O)N(C)C)cc4c23)cc1` [Example 115, N1-(4-methoxyphenyl)-8,N8-dimethyl-4-methoxydibenzo[b,d]thiophen-8,1-disulfonamide], the IC50 came out at 37.4 nM.

A word on the IC50: it is the concentration at which inhibition is half-maximal.
